Each structure is given as a SMILES string.

A short description of this series: Human HepG2 cell viability assay in 384 well format. The format is toxicity, cell-based. Set-up: dose 125 nL, time 70.5 hour; cytotoxicity at 70.5 h: concentration not given beside the values. Conditions: HepG2 cells, read-out: Inhibition.
As to `Cc1noc(C)c1CN1CCn2cc(CN3CCCCC3)nc2C1`, the cytotoxicity at 70.5 h was -3.15%.
`O=C1CCC(c2nc(C3CCNCC3)no2)N1` (centres undefined): the cytotoxicity at 70.5 h was -6.87%.
Regarding `c1ccc(CCCn2ccnc2-c2cn(C3CCNCC3)nn2)nc1`, the cytotoxicity at 70.5 h is 22.4%.
For `CC(C)n1ccc(-c2cc(C(=O)N3CCN(C)CC3)c3ccccn23)n1`, the cytotoxicity at 70.5 h is -3.84%.
With `Nc1nc2c(c(N3CCCC3)n1)CCN(Cc1ccccn1)CC2`, the cytotoxicity at 70.5 h amounted to 8.7%.
As for `Cc1ccc(C(O)CNC(=O)NCc2csc(C)n2)cc1` (centres undefined), the cytotoxicity at 70.5 h was -2.4%.
As for `CCCNc1nc(CS(=O)(=O)c2ccccc2)cs1`, the cytotoxicity at 70.5 h is -7.26%.
The result for `Cc1nc(C)c(C(=O)NCCNC(=O)c2ccc(F)cc2F)s1` reads -6.45%; that for `COc1ccc(CC(=O)N(C)c2cccnc2N(C)C)c(Cl)c1`, -1.15%.
The result for `CC1(C)CNC(=O)c2nc(CCN3CCOCC3)[nH]c2C1` reads -7.47%.
As for `Cc1ccc(CNCCCNS(C)(=O)=O)c(Br)c1`, the cytotoxicity at 70.5 h worked out at 4%.
On to `CCC(CNC(=O)c1ccc(Br)o1)N1CCc2ccccc2C1` (centres undefined), for which the cytotoxicity at 70.5 h was -7.37%.
Turning to `CN1CCCC1c1ccc(C(=O)N2CCc3ccccc3C2)s1` (centres undefined), the cytotoxicity at 70.5 h came to 17.6%.
`CC(C)Cn1ccc2c(NC(=O)c3n[nH]c4c3CCC4)cccc21`: the cytotoxicity at 70.5 h is 5.24%.
With `CC(C)C(=O)N(C)Cc1nnc2n1CCCCC2`, the cytotoxicity at 70.5 h is 25%.
For `Cc1cc(C)n(C2=NC(NCCCO)c3c(sc4c3CCCC4)N2)n1` (centres undefined), the cytotoxicity at 70.5 h is -11.9%.
With `c1ccc(CCNCC2Cn3nncc3CO2)cc1` (centres undefined), the cytotoxicity at 70.5 h was -0.333%.
The result for `CN(C)C(=O)N1C[C@@H]2CC[C@H](C1)N(C(=O)CCCn1cncn1)C2` reads -10.6%.
Consider `CCn1nc(C)c2nc(C)nc(NC3CCCC3)c21`, for which the cytotoxicity at 70.5 h was -7.43%.
In the case of `CC(=O)N1CC2(CCN(C(=O)C3CC3)CC2)c2cc(C)ccc21`, the cytotoxicity at 70.5 h came to 6.48%.
Turning to `O=S(=O)(C1CC1)N1CCC2(COCc3cnc(-c4cccnc4)nc32)C1` (centres undefined), the cytotoxicity at 70.5 h was -10.6%.
The result for `O=C(CCC1CCCC1)N1C[C@H]2CC[C@@H]1CN(Cc1ccncc1)C2` reads -11.9%; that for `CC(C)(NS(C)(=O)=O)c1nc(-c2cccc(Cl)c2)no1`, -4.4%.
Consider `Cc1cc(C(=O)N(C)Cc2nc(-c3ccccn3)no2)c(C)o1`, for which the cytotoxicity at 70.5 h was -4.74%.
Consider `COc1ccc(-n2ncc3c2NC(=O)CSC3CC(C)C)cc1` (centres undefined), for which the cytotoxicity at 70.5 h was -19.5%.
The result for `COCCOCC(=O)NCCCOC1CCCc2ccccc21` (centres undefined) reads 27.2%.
Take `O=C(c1ccc(-n2ccnn2)cc1)N(CC1CC1)c1cccnc1`: the cytotoxicity at 70.5 h was 5.29%.
Regarding `Cc1cccc(CN2CCC3(CCCN(C(=O)c4ccoc4)C3)C2=O)n1` (centres undefined), the cytotoxicity at 70.5 h was -3.14%.
For `CCOCc1ccc(NC(=O)N2CCOC3(CCC3)C2)cc1`, the cytotoxicity at 70.5 h is -5.85%.
Consider `O=C(O)c1cccnc1CN(Cc1ccsc1)C1CC1`, for which the cytotoxicity at 70.5 h is -6.7%.
As for `CCC(C)(CCO)NC(=O)c1ccon1` (centres undefined), the cytotoxicity at 70.5 h turned out to be 24.8%.
As for `CN(C)C(=O)c1ccn(COc2ccccc2Cl)n1`, the cytotoxicity at 70.5 h is -2.41%.
As to `O=C(NCCn1ccnc1)N1CCCN(Cc2cccs2)CC1`, the cytotoxicity at 70.5 h is -9.01%.
For `N#Cc1cc(C(F)(F)F)ccc1NCC1CCS(=O)(=O)CC1` the value was 16.6%.
For `Cc1nn(C)c2cnn(Cc3ccc(C(=O)NC4CC4)cc3)c12`, the cytotoxicity at 70.5 h was -5.97%.
Regarding `CN1CCN([C@@H]2CCN(C3CCOC3)[C@H]2Cc2cnn(C)c2)CC1` (some centres undefined), the cytotoxicity at 70.5 h was -12.4%.
Take `CC(C)c1ccc(C#N)c(N2CC(C)(C)[C@@](C)(O)C2)n1`: the cytotoxicity at 70.5 h was -17.8%.
On to `CCCc1nc(CN2CCOC(Cn3cccn3)C2)no1` (centres undefined), for which the cytotoxicity at 70.5 h was -1.75%.
Take `Cc1cc(CN2CCN(C(=O)NC(C)c3ccncc3)CC2)on1` (centres undefined): the cytotoxicity at 70.5 h is -9.79%.
The result for `CCC1=N[C@@]2(CC[C@@H]3CN(CC4CC4)C[C@@H]32)C(=O)N1CC1CC1` reads -20.5%; that for `CNS(=O)(=O)c1cc(C(=O)N(C)Cc2sccc2C)c(C)o1`, -5.52%; that for `COc1ccc2c(ccn2CCCN)c1`, -7.17%.
As for `CC(C)(C)C(Cn1ccnc1)NC(=O)NCc1ccco1` (centres undefined), the cytotoxicity at 70.5 h is -7.73%.
For `Cc1cnn(CC2CN(Cc3nc(C)c(C)o3)CCO2)c1` (centres undefined), the cytotoxicity at 70.5 h was 1.07%.
For `CC(C)c1nnc2n1CCN(C(=O)c1ccc(S(C)(=O)=O)cc1)C2`, the cytotoxicity at 70.5 h is -5.36%.
On to `CNC(=O)C1Cc2ccccc2CN1CCc1cccs1` (centres undefined), for which the cytotoxicity at 70.5 h is -8.64%.
In the case of `Cc1cc(-c2ccc(=O)n(C3CCN(S(=O)(=O)N(C)C)CC3)n2)c(C)o1`, the cytotoxicity at 70.5 h came to 3.38%.
Consider `O=C(C1CCOCC1)N1CCO[C@H]2[C@@H](OCc3ccncc3)CC[C@@H]21`, for which the cytotoxicity at 70.5 h is -4.02%.
Consider `O=C1NC[C@H]2CN(Cc3ccnc4ccccc34)CCN12`, for which the cytotoxicity at 70.5 h was -6.05%.
`CS(=O)(=O)N[C@@H]1CN(C(=O)c2ccccn2)C[C@@H]2CCCO[C@@H]21`: the cytotoxicity at 70.5 h is -9.33%.
For `Cc1nc2cc(=O)[nH]n2c(C)c1CC(=O)NC(C)C` the value was -7.48%.
On to `CCN(CC)c1ccc(NC(=O)NCC2CCOC2)cn1` (centres undefined), for which the cytotoxicity at 70.5 h is -12.2%.
`c1ccc(Cc2noc(CN3CCc4c(ncn4C4CC4)C3)n2)cc1`: the cytotoxicity at 70.5 h was determined as 11.8%.
The result for `CC[C@H]1CN2CC[C@H]1C[C@@H]2CNCc1ccc(OC)cc1` reads -3.31%; that for `CCc1nnc2n1CCN(Cc1ncc(-c3ccccc3)o1)C2`, -13.5%.
The result for `NC(=O)c1ccc(CN2CCC(N3CCCC3)CC2)cc1` reads -2.01%; that for `CCC(=O)NCC1(O)CCC(C(C)(C)C)CC1` (centres undefined), -4.59%.
On to `c1cc(CN2CCN(Cc3cscn3)CC2)cs1`, for which the cytotoxicity at 70.5 h was -6.89%.
The result for `Cc1oc(C)c(C(=O)N2CCN(Cc3cscn3)CC2)c1C` reads -7.99%; that for `O=C(CC1CC1)NCc1cn2c(n1)CN(Cc1cccc(F)c1)CC2`, -3.4%; that for `Cn1cnc2ccc(NC(=O)CC3CCN(C4CCCCC4)CC3)cc21`, -4.48%.
Turning to `Cn1ccnc1C1CCN(CCC2CCOC2)CC1` (centres undefined), the cytotoxicity at 70.5 h worked out at 14.8%.
As for `O=C(NCc1ccc2c(c1)CCCO2)C1CNCCO1` (centres undefined), the cytotoxicity at 70.5 h was 48.5%.
`Cc1cnc(C)c(-c2cc(O)c3c(c2)CN(c2ncccn2)CCO3)n1`: the cytotoxicity at 70.5 h is 48.2%.
`CCn1ccnc1CN1CCCC1C(=O)Nc1nccs1` (centres undefined): the cytotoxicity at 70.5 h was -5.23%.
For the molecule `Cc1nn(C)c2cnn(Cc3ccc(C(=O)N4CCN(C)CC4)o3)c12`, the cytotoxicity at 70.5 h amounted to 28.4%.
Take `COCCN1C[C@H]2[C@@H](C1)N(Cc1ccc(C)o1)CC[C@H]2OC`: the cytotoxicity at 70.5 h was -5.94%.
For `CN(C)CCC(Nc1nc(N)nc2c1CCNCC2)c1ccccc1` (centres undefined), the cytotoxicity at 70.5 h is -8.45%.
The result for `Cc1c(C(=O)NCC(C)C)nnn1-c1cccc2c1CCN(C(C)C)C2` reads -0.43%.
For `Clc1ccc2nc(N3CCC(NCCCC4CCOC4)CC3)sc2c1` (centres undefined) the value was 48.3%.
In the case of `COCCN1CCC(CN(CC2CCCO2)C(=O)CCNC(C)=O)CC1` (centres undefined), the cytotoxicity at 70.5 h was -3.63%.
`CN(C)Cc1ccc(C2CCCCN2C(=O)c2ncccc2O)cc1` (centres undefined): the cytotoxicity at 70.5 h is -3.45%.
Regarding `Cc1cccc(C(=O)N2CCCC2)c1NCC(=O)NC1(C#N)CCCC1`, the cytotoxicity at 70.5 h is -4.19%.
For `CNc1oc(-c2ccc(OC)c(S(=O)(=O)N(C)C)c2)nc1C#N`, the cytotoxicity at 70.5 h is -9.03%.
As to `Cc1ncoc1C(=O)N1CCOC(CCCC(C)C)C1` (centres undefined), the cytotoxicity at 70.5 h was -8.44%.
Turning to `Cc1ncsc1CN1C[C@@H]2COC[C@]2(C(=O)NCC2CC2)C1`, the cytotoxicity at 70.5 h is -3.67%.
With `Cn1cc(C(=O)NCCc2csc(-c3ccccc3)n2)ccc1=O`, the cytotoxicity at 70.5 h is -2.1%.
For `O=C(Cn1ncc(N2CCCC2)cc1=O)Nc1ccc2nccnc2c1` the value was -3.43%; for `CCO[C@@H]1CN(S(=O)(=O)c2cn(C)cn2)[C@@H]2CCCO[C@@H]21`, -10.2%; for `Cc1cc(N2CCOC(c3ccc(N(C)C)cn3)C2)nc(N)n1` (centres undefined), -6.31%.
The result for `CNC(=O)C1CCN(C(=O)c2coc(COc3ccc(OC)cc3)n2)C1` (centres undefined) reads -2.27%; that for `COc1ccc2[nH]c3c(N(C)CC4OCCO4)ncnc3c2c1`, 5.81%; that for `CN(C)c1ccccc1CN1CCCC(N2CCCC2=O)C1` (centres undefined), -8.7%.
In the case of `O=C(NCC(O)c1cccc(F)c1)C1CCN(C(=O)C2CCC2)CC1` (centres undefined), the cytotoxicity at 70.5 h was -1.02%.
For `COCC(=O)N1CCCC1c1nc(C)c2c(n1)N(CC(C)C)C(=O)CC2` (centres undefined), the cytotoxicity at 70.5 h was -6.03%.
The result for `O=C1C[C@H]2[C@@H](CCN2C(=O)c2cscn2)N1Cc1cccnc1` reads -20.8%.
`CC(=O)N1CCN(c2cc(N(C)C)cnn2)CC1`: the cytotoxicity at 70.5 h is -3.71%.
`Cc1ccccc1OC1(C(=O)O)CCN(C(=O)CCc2ccco2)CC1`: the cytotoxicity at 70.5 h is -3.93%.
On to `O=C(C1CCC2(CCN(CC3CC3)CC2)O1)N1CCCC1` (centres undefined), for which the cytotoxicity at 70.5 h is -7.11%.
For `CCN(CCn1cccn1)C(=O)CN1C(=O)OC[C@@H]1C(C)C` the value was -3.13%.
Take `N#Cc1ccc(C(=O)O)nc1/C=C/c1cccc(F)c1`: the cytotoxicity at 70.5 h is -7.55%.
For `O=C(O)C1(n2ccnc2)CCN(Cc2cc3ccccc3o2)CC1`, the cytotoxicity at 70.5 h was -5.42%.
`O=C(Cc1ccon1)NC1CC2(CCC2)Oc2ccccc21` (centres undefined): the cytotoxicity at 70.5 h was found to be 4.31%.
For `CCN(CC)CCn1cc(NC2CCSCC2)cn1` the value was -1.75%; for `CCCOC1CCCN(c2nc(CC)nc3c2cnn3C)C1` (centres undefined), -10.7%.
On to `O=C(c1cc2c([nH]c1=O)CCC2)N1CCCC1c1cccnc1` (centres undefined), for which the cytotoxicity at 70.5 h amounted to 14.6%.
The result for `O=C(NCc1cc(Cl)ccn1)NCc1ccco1` reads 13.9%; that for `Cn1ncc(-c2cc(-c3cccc(O)c3)nc(N)c2C#N)c1C1CC1`, 37.1%; that for `CN(C)c1ncc(C2Nc3ccccc3C3=NCCCN32)cn1` (centres undefined), -4.88%.

These data come from ChEMBL document CHEMBL3507680, “University of Dundee, Gates Library screen for HepG2 cell viability”.
